Reference: PubChem BioAssay AID977624 (Broad Institute, 2014)
Results filed as inconclusive are left out. Active and inactive are the calls of the source.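 The calls were made as follows: active = compound lowering the normal-ribosome reporter at least twice as much as the humanized-ribosome reporter, growth loss under a set limit; inconclusive = no clear call, values can overlap the other calls; inactive = the rest.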

Legend:
Experiment in all cases: wild-type E. coli growth inhibition versus h34 humanized strain – h34 mutant RFP, wild-type GFP, cherry-pick, dose response (AID 977624);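 also: wild-type GFP strain co-cultured with humanized h34 ribosome RFP strain in same well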
[1] = tested on: E. coli mixed culture (wild-type GFP + h34 RFP) total growth, OD600, 24 h; details: E. coli mixed culture (wild-type GFP + h34 RFP), 24 h
[2] = tested on: E. coli wild-type GFP strain growth, fluorescence, 24 h
[3] = tested on: E. coli h34 humanized ribosome mutant RFP strain growth, fluorescence, 24 h
[4] = measured here: total OD600 growth

## CCCCNc1ccc2c(c1)OC[C@@H](Cc1ccccc1)NS2(=O)=O
[1]; [4]
  AC50: 44.4 µM
[2]
  AC50: > 100 µM (inactive)

## Cc1sc2ncnc(N3CCCC(C)C3)c2c1C (stereo not given)
[1]; [4]
  AC50: > 100 µM
[2]
  AC50: > 100 µM (inactive)

## O=C(c1cnc(Cc2c[nH]c3ccccc23)c(I)c1)N1CCCCC1
[1]; [4]
  AC50: > 100 µM
[2]
  AC50: > 100 µM (inactive)

## CC(C)n1nnnc1C1c2ccccc2C(=O)N1CCOc1ccccc1 (stereo not given)
[3]
  AC50: 5.87 µM

## COc1cc(OC)nc(Oc2ccccc2C(=O)Oc2ccc(C)cc2)n1
[3]
  AC50: 45.6 µM
[2]
  AC50: > 100 µM (inactive)

## COc1ccc(NC(=O)c2cccs2)cc1C(=O)N1CCN(c2ccccc2)CC1
[3]
  AC50: > 100 µM

## COc1ccccc1-c1nnc(C2CCN(S(=O)(=O)c3ccccc3[N+](=O)[O-])CC2)o1
[1]; [4]
  AC50: > 100 µM
[2]
  AC50: > 100 µM (inactive)

## CS(=O)(=O)Nc1ccccc1C(=O)NCCSc1ccccc1
[3]
  AC50: 51.2 µM

## CC(C)(C)c1ccc(-c2noc(CCC(=O)NCc3ccco3)n2)cc1
[3]
  AC50: 2.76 µM

## C=CCN(c1ccccc1)S(=O)(=O)c1cccc2cccnc12
[3]
  AC50: 4.71 µM

## O=C(Nc1cccc(Oc2ccc3c(c2)C(=O)NC3=O)c1)c1cccs1
[1]; [4]
  AC50: > 100 µM
[2]
  AC50: > 100 µM (inactive)

## Cc1ccc(C2(c3noc(CN(C)Cc4cccnc4)n3)CCCC2)cc1
[1]; [4]
  AC50: > 100 µM
[2]
  AC50: > 100 µM (inactive)

## CCc1cc2c(=O)n(Cc3ccccc3)c(SC3CCOC3=O)nc2s1 (stereo not given)
[3]
  AC50: 46.4 µM
[2]
  AC50: > 100 µM (inactive)

## CC(NCc1ccc(S(N)(=O)=O)cc1)C(=O)Nc1cc([N+](=O)[O-])ccc1Cl (stereo not given)
[3]
  AC50: > 100 µM
[2]
  AC50: > 100 µM (inactive)

## O=C(Nc1ccncc1)c1ccc(S(=O)(=O)Nc2ccccc2)cc1
[3]
  AC50: 46.5 µM

## Clc1ccc2nc(CN3CCCc4ccccc43)cn2c1
[1]; [4]
  AC50: 36.1 µM
[2]
  AC50: > 100 µM (inactive)

## C[C@@H]1CCCCO[C@@H](CN(C)C(=O)c2ccccc2)[C@H](C)CN([C@@H](C)CO)C(=O)c2cc(NC(=O)c3ccccc3)ccc2O1
[1]; [4]
  AC50: > 100 µM
[2]
  AC50: > 100 µM (inactive)

## N#Cc1cccc(-c2ccc3c(c2)[C@H]2[C@H](CCN2C(=O)c2ccccc2F)[C@H](CO)N3)c1
[1]; [4]
  AC50: > 100 µM
[2]
  AC50: > 100 µM (inactive)

## CC(=O)N1CCN(c2cc(N3CCCC3)c(F)cc2[N+](=O)[O-])CC1
[1]; [4]
  AC50: > 100 µM
[2]
  AC50: > 100 µM (inactive)

## CCn1c(NC(=O)c2nn(C)cc2Br)nc2ccccc21
[3]
  AC50: 45.6 µM
[1]; [4]
  AC50: 50.3 µM
[2]
  AC50: > 100 µM (inactive)

## c1ccc(CN2CCN(C3CCCSc4ccccc43)CC2)cc1 (stereo not given)
[1]; [4]
  AC50: 50.3 µM
[2]
  AC50: > 100 µM (inactive)

## CCc1ccc(C(=O)Nc2cccnc2Oc2ccc(Cl)cc2)cc1
[1]; [4]
  AC50: > 100 µM
[2]
  AC50: > 100 µM (inactive)

## O=C(Nc1cccc(Cl)c1)c1ccc(S(=O)(=O)NCC2CCCO2)cc1 (stereo not given)
[3]
  AC50: 1.4 µM
[2]
  AC50: > 100 µM (inactive)

## Cc1ccccc1NS(=O)(=O)c1cc(C(=O)NCCC2=CCCCC2)ccc1C
[3]
  AC50: > 100 µM

## COc1ccc(-c2nc(NC(C)=O)sc2-c2ccccc2)cc1
[1]; [4]
  AC50: > 100 µM
[2]
  AC50: > 100 µM (inactive)

## Cc1cccc(N2CCN(Cc3nc(-c4ccc(F)cc4F)oc3C)CC2)n1
[3]
  AC50: 3.83 µM

## CCOc1ccc(OCCn2c(=S)[nH]c3c(N)ncnc32)cc1
[3]
  AC50: 17.3 µM
[2]
  AC50: > 100 µM (inactive)

## CN(CCOc1ccccc1)C(=O)c1ccc(OC2CCN(C(=O)C3CC3)CC2)cc1
[1]; [4]
  AC50: > 100 µM
[2]
  AC50: > 100 µM (inactive)

## COCC#Cc1ccc2c(c1)O[C@H](CN(C)C(=O)c1ccccc1)[C@@H](C)CN([C@H](C)CO)S2(=O)=O
[3]
  AC50: > 100 µM

## COc1ccc(NC(=O)Nc2cccc3c2O[C@H](CN(C)S(=O)(=O)c2ccc(Cl)cc2)[C@H](C)CN([C@@H](C)CO)C3=O)cc1
[1]; [4]
  AC50: > 100 µM
[2]
  AC50: > 52 µM (inactive)

## COc1cccc(N2CCN(c3ccc(S(=O)(=O)N4CCN(C)CC4)cc3[N+](=O)[O-])CC2)c1
[1]; [4]
  AC50: > 100 µM
[2]
  AC50: > 100 µM (inactive)

## O=S(=O)(c1ccccc1)N1CC[C@@H]2[C@H](CO)Nc3ccc(Br)cc3[C@@H]21
[1]; [4]
  AC50: > 100 µM
[2]
  AC50: > 100 µM (inactive)

## CCC1=Nc2cc(C(=O)NCc3cccnc3)ccc2Sc2ccc(C)cc21
[3]
  AC50: 32.6 µM
[2]
  AC50: > 100 µM (inactive)

## c1ccc(-n2c(SCc3nc(-c4cccs4)no3)nnc2-c2ccco2)cc1
[1]; [4]
  AC50: > 100 µM
[2]
  AC50: > 100 µM (inactive)

## CC(C)Cn1c(=O)c2ccccc2c2ccccc2c1=O
[3]
  AC50: 7.44 µM
[2]
  AC50: > 100 µM (inactive)

## Cc1noc(C)c1S(=O)(=O)N(Cc1ccccc1)C(C)C
[3]
  AC50: > 100 µM

## CC(=O)c1c(N2CCOCC2)nc2ccc(Cl)cc2c1-c1ccccc1
[3]
  AC50: > 100 µM

## O=C(Nc1ccccc1N1CCOCC1)C1CCCCN1S(=O)(=O)c1ccccc1 (stereo not given)
[3]
  AC50: > 100 µM

## O=C(CSc1ccccc1)Nc1cccc(NC(=O)c2ccco2)c1
[1]; [4]
  AC50: > 100 µM
[2]
  AC50: > 100 µM (inactive)

## CCOC(=O)c1nc(C)sc1-c1ccnn1S(=O)(=O)c1cccc(Cl)c1
[1]; [4]
  AC50: 52.2 µM
[2]
  AC50: > 100 µM (inactive)

## CCOc1ccccc1N(CC(=O)Nc1ccccc1F)S(=O)(=O)c1ccccc1
[3]
  AC50: 52.1 µM
[2]
  AC50: > 100 µM (inactive)

## COc1ccc(OC2C(=O)N(Cc3ccc4c(c3)OCO4)C2c2cccs2)cc1 (stereo not given)
[1]; [4]
  AC50: > 100 µM
[2]
  AC50: > 100 µM (inactive)

## O=C(c1ccc(N2CCCCC2)c([N+](=O)[O-])c1)N1CCN(c2ccccn2)CC1
[3]
  AC50: > 100 µM

## COc1cccc(NC(=O)CSc2nc3c(sc4ccccc43)c(=O)n2CCN(C)C)c1
[3]
  AC50: > 100 µM

## O=S(=O)(NCC1CCCO1)c1ccc(-c2ccc(Cl)cc2)cc1 (stereo not given)
[3]
  AC50: 31.8 µM

## Cn1nc(C(=O)Nc2cccc(S(=O)(=O)N3CCCCC3)c2)c2ccccc2c1=O
[1]; [4]
  AC50: > 100 µM
[2]
  AC50: > 100 µM (inactive)

## O=C(Cc1c(Cl)cccc1Cl)Nc1cccc(S(=O)(=O)N2CCOCC2)c1
[1]; [4]
  AC50: 48.6 µM
[2]
  AC50: > 100 µM (inactive)

## Cc1ccc(Cl)cc1N1CCN(C(=O)c2ccc3nc[nH]c3c2)CC1
[1]; [4]
  AC50: > 100 µM
[2]
  AC50: > 100 µM (inactive)

## O=C(Nc1ccccc1N1CCN(C(=O)c2ccccc2)CC1)c1ccc([N+](=O)[O-])o1
[3]
  AC50: 1.97 µM
[2]
  AC50: > 100 µM (inactive)

## COc1ccc(CCCc2nc3ccccc3[nH]2)cc1
[1]; [4]
  AC50: > 100 µM
[2]
  AC50: > 100 µM (inactive)

## O=C1c2cccc(OCC(=O)N3CCCc4ccccc43)c2CCN1Cc1cccnc1
[1]; [4]
  AC50: > 100 µM
[2]
  AC50: > 100 µM (inactive)

## O=C(Nc1cc(S(=O)(=O)N2CCOCC2)ccc1N1CCOCC1)c1ccc([N+](=O)[O-])s1
[1]; [4]
  AC50: > 100 µM

## CN1CCN(C(=O)C[C@@H]2CC[C@@H]3[C@H](COC[C@H](O)CN3C(=O)Nc3ccc(Cl)cc3)O2)CC1
[1]; [4]
  AC50: > 100 µM
[2]
  AC50: > 100 µM (inactive)

## COc1cc(C(N)=O)cc(Br)c1OCc1ccccc1
[1]; [4]
  AC50: > 100 µM
[2]
  AC50: > 100 µM (inactive)

## Cc1ccccc1COc1ccc(-c2nn[nH]n2)cc1
[1]; [4]
  AC50: > 100 µM

## CCSc1nc2ccccc2c(=O)n1CCc1ccc(OC)c(OC)c1
[1]; [4]
  AC50: > 100 µM

## Cc1cc(NC(=O)CN2CCN(c3cccc(Cl)c3)CC2)no1
[1]; [4]
  AC50: 29.5 µM
[2]
  AC50: > 100 µM (inactive)

## O=C(Nc1ccc(F)cc1)N1CCCCN2[C@@H](CO)[C@H](c3ccc(-c4ccncc4)cc3)[C@@H]2C1
[1]; [4]
  AC50: > 100 µM
[2]
  AC50: > 100 µM (inactive)

## COC(=O)c1cc(S(=O)(=O)NCc2ccc3c(c2)OCO3)cn1C
[3]
  AC50: 52.4 µM

## O=C(O)c1cccnc1SCc1ccccc1Cl
[1]; [4]
  AC50: > 100 µM
[2]
  AC50: > 100 µM (inactive)

## CCCC(=O)Nc1sc2c(c1C(=O)Nc1ccccn1)CCCC2
[3]
  AC50: > 100 µM

## O=C1c2ccccc2NC(c2ccc(-c3cccc([N+](=O)[O-])c3)o2)N1O (stereo not given)
[1]; [4]
  AC50: > 100 µM

## Cc1ccc(NS(=O)(=O)c2cc(C(=O)N3CCc4ccccc4C3)ccc2Cl)cc1
[3]
  AC50: 32.6 µM
[2]
  AC50: > 100 µM (inactive)

## C=CCn1c(SCC(=O)Nc2ccc3c(c2)OCCO3)nnc1-c1ccco1
[1]; [4]
  AC50: > 100 µM

## Cc1nc(SCC(=O)Nc2ccc3c(c2)OCCO3)nc(C)c1C
[1]; [4]
  AC50: > 100 µM

## O=c1[nH]c(C2CCN(S(=O)(=O)c3ccc4c(c3)OCCO4)CC2)nc2c1nnn2Cc1ccccc1F
[1]; [4]
  AC50: > 100 µM
[2]
  AC50: > 100 µM (inactive)

## O=C(Nc1ccccc1Cl)c1ccc2c(c1)N(Cc1ccc(F)cc1)C(=O)CS2=O (stereo not given)
[3]
  AC50: 50 µM
[2]
  AC50: > 100 µM (inactive)

## O=C1NC(CCc2ccccc2)C(=O)N1Cc1cccc2ccccc12 (stereo not given)
[1]; [4]
  AC50: > 100 µM
[2]
  AC50: > 100 µM (inactive)

## O=C(Nc1cccc(Cl)c1)N1C[C@@H]2[C@H](c3ccccc31)[C@H](CO)N2Cc1ccncc1
[1]; [4]
  AC50: > 100 µM

## O=C(O)c1cc(-c2ccc(Cl)s2)nc2ccccc12
[1]; [4]
  AC50: > 100 µM
[2]
  AC50: > 100 µM (inactive)

## COc1ccccc1NC(=O)CSc1nccn1Cc1ccc(F)cc1
[1]; [4]
  AC50: > 100 µM

## Cc1cccc(OCCC(=O)Nc2ccc(F)c(F)c2)c1
[1]; [4]
  AC50: > 100 µM

## Cc1cc(C)cc(NC(=O)c2cccc(NC(=O)c3ccco3)c2)c1
[1]; [4]
  AC50: > 100 µM
[2]
  AC50: > 100 µM (inactive)

## CCOc1ccccc1NC(=O)c1ccc2ccccc2c1
[3]; E. coli wild-type GFP strain growth, fluorescence, 24 h, measured here: RFP h34 mutant, test 1
  AC50: > 100 µM
[1]; measured here: OD600, test 1
  AC50: 38.3 µM
[2]; measured here: GFP wild-type, test 1
  AC50: > 100 µM

## Cc1nnc2sc(SCC(=O)Nc3ccc(Br)cc3)nn2c1=O
[3]
  AC50: > 100 µM
[2]
  AC50: > 100 µM (inactive)

## COc1cc(NC(=O)C(c2ccccc2)c2ccccc2)c(C(=O)O)cc1OC
[3]
  AC50: 36.4 µM
[2]
  AC50: > 100 µM (inactive)

## Cc1ccsc1C(=O)C1CCCN(Cc2cc(F)ccc2-n2cccn2)C1 (stereo not given)
[1]; [4]
  AC50: > 100 µM
[2]
  AC50: > 100 µM (inactive)
